Data published in patent US20180369195A1, “COMBINATION THERAPY FOR TREATMENT OF MELANOMA” (The Regents of the University of California, priority 2015, published 2018).

Columns and labels:
Type in all cases: cell-based, human
β-catenin = test: Western blot of β-catenin; conditions: G361, SK-MEL-2 cells pre-treated 3 hours with GSK3β inhibitor, then 20 μM 1-benzyl I3C 24 hours
Description: The western blots employed the following primary antibodies: mouse anti-MITF-M (Thermo-scientific), mouse anti-HSP 90 (BD Biosciences), mouse anti-CDK2, rabbit anti-CDK4, rabbit anti-CDK-6, mouse anti-rabbit BRAF, goat anti-LEF-1, rabbit anti-AXIN, mouse anti-BCL2, (Santa Cruz), rabbit anti-P21, mouse anti-Cyclin D1, rabbit anti-MEK-p, rabbit anti-MEK1/2, rabbit anti-GSK3β rabbit anti-LRP6, rabbit anti-LRP6-phospho (Cell signaling), mouse anti-β-catenin (Invitrogen).

phosphorylated Erk/MAPK = test: Western blot of phosphorylated Erk/MAPK; conditions: G-361 cells, 48 hours; 200 μM I3C, 10 μM Vemurafenib or 10 μM U0126
Description: (§2) Western Blot analyses of samples electrophoretically fractionated on 12% acrylamide gels were carried out as previously described (Wagle et al., J. Clin. Oncol. 2011. 29(22):3085-3096; Nguyen et al., Chem. Biol. Interact. 2010. 186(3):255-266). […] The western blots employed the following primary antibodies: mouse anti-MITF-M (Thermo-scientific), mouse anti-HSP 90 (BD Biosciences), mouse anti-CDK2, rabbit anti-CDK4, rabbit anti-CDK-6, mouse anti-rabbit BRAF, goat anti-LEF-1, rabbit anti-AXIN, mouse anti-BCL2, (Santa Cruz), rabbit anti-P21, mouse anti-Cyclin D1, rabbit anti-MEK-p, rabbit anti-MEK1/2, rabbit anti-GSK3β rabbit anti-LRP6, rabbit anti-LRP6-phospho (Cell signaling), mouse anti-β-catenin (Invitrogen).

MITF-M = MITF-M protein levels in cultured melanoma cells (western blot, immunofluorescence); conditions: for MITF-M protein levels (western blot): G-361 cells, 48 hours, 200 μM I3C, 10 μM Vemurafenib or 10 μM U0126
Description: (§1) Western Blot analyses of samples electrophoretically fractionated on 12% acrylamide gels were carried out as previously described (Wagle et al., J. Clin. Oncol. 2011. 29(22):3085-3096; Nguyen et al., Chem. Biol. Interact. 2010. 186(3):255-266). Enhanced chemiluminescence (ECL) Lightening reagents were used to visualize the primary antibody bound protein bands in nitrocellulose membranes and the results captured on ECL Autoradiography Film (GE Healthcare, Piscataway, N.J.). The western blots employed the following primary antibodies: mouse anti-MITF-M (Thermo-scientific), mouse anti-HSP 90 (BD Biosciences), mouse anti-CDK2, rabbit anti-CDK4, rabbit anti-CDK-6, mouse anti-rabbit BRAF, goat anti-LEF-1, rabbit anti-AXIN, mouse anti-BCL2, (Santa Cruz), rabbit anti-P21, mouse anti-Cyclin D1, rabbit anti-MEK-p, rabbit anti-MEK1/2, rabbit anti-GSK3β rabbit anti-LRP6, rabbit anti-LRP6-phospho (Cell signaling), mouse anti-β-catenin (Invitrogen).

CDK4 = test: Western blot of CDK4; conditions: G-361 cells, 48 hours; 200 μM I3C, 10 μM Vemurafenib or 10 μM U0126
Description: as §1

SK-MEL-2 cells = test: CCK-8 proliferation assay, SK-MEL-2; conditions: 48 hours
Description: […] Cells were treated with 20 μM 1-benzyl I3C every 24 hours for 72 hours and harvested at 24, 48 and 72 hours for western blot and flow cytometric analysis. Cells were treated with 20 μM LiCl or 10 μM BIO for 48 hours before harvesting them for western blots.
Subsequently inhibition of proliferation was assessed using Cell counting Kit-8 (Dojindo) as per the protocol in the user's manual. Briefly, 50 μl of the CCK-8 solution was added to each well along with 450 μl media and incubated for 2-3 hours. The absorbance was read at 450 nm and % inhibition was calculated for each condition standardizing DMSO to zero using the formula: [(100−Value of treatment/Value of DMSO treated control)×100]

phosphorylated MEK = test: Western blot of phosphorylated MEK; conditions: G361 and DM738 cells, 10 μM Vemurafenib, 24 hours
Description: as §2

## [Cl-].[Li+] [LiCl, Lithium Chloride]
β-catenin
  rescue of 1-benzyl I3C induced downregulation of β-catenin, MITF-M, CDK2, BCl2: significant rescue

## N#CC(=C(/N)Sc1ccccc1N)/C(C#N)=C(\N)Sc1ccccc1N [U0126, reference compound]
Phosphorylated Erk/MAPK
  phosphorylated Erk/MAPK levels: down regulated
MITF-M
  MITF-M protein levels (western blot): down regulated
CDK4
  CDK4 protein levels: down regulated

## Vemurafenib [reference compound]
SK-MEL-2 cells
  antiproliferation in wild-type BRAF cells: ineffective
Phosphorylated MEK
  MEK-P levels: downregulated MEK-P
Phosphorylated Erk/MAPK
  phosphorylated Erk/MAPK levels: down regulated
MITF-M
  MITF-M protein levels (western blot): down regulated
MITF-M; SK-MEL-2 cells (wild-type BRAF), 10 μM Vemurafenib, 24 hours
  sensitivity of MITF-M inhibition to Vemurafenib: not sensitive to Vemurafenib action
CDK4
  CDK4 protein levels: down regulated

## O=C1Nc2cc(Br)ccc2/C1=C1/Nc2ccccc2/C1=N\O [BIO, 6-bromoindirubin-3′-oxime]
β-catenin
  rescue of 1-benzyl I3C induced downregulation of β-catenin, MITF-M, CDK2, BCl2: significant rescue
